≈ marks a conversion by molar mass, not a printed value. Where “and” joins values, the source holds several entries; their conditions need not be identical. Identical values can stand only once. Like-named read-outs stand apart in the source and are kept apart here. Blank lines part the entries; values can stand above or below the molecule they belong to. Primed or numbered codes have the meaning given here. Where no end group is shown, it is not given here. FITC″ = fluorescein isothiocyanate label; FITC′ = not defined here
T1: CIB1-(His)6 : F-αIIb peptide (Homo sapiens, UniProt Q99828)
T1 construct: made in house
T1 sequence (Q99828 1-191): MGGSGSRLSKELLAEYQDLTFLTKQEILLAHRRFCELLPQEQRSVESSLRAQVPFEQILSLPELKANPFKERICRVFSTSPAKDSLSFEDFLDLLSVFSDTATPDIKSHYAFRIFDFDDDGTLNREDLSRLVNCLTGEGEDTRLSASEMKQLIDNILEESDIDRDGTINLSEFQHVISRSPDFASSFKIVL

T2: CIB1 and αIIb interaction (CIB1-GST : F-αIIb peptide) (Homo sapiens, UniProt Q99828)
T2 construct: made in house; host or cells: BL-21 plus RIL cells (E. coli)
T2 sequence (Q99828 1-191): T1 sequence (Q99828 1-191)

T3: CIB1-(His)6 (Homo sapiens, UniProt Q99828)
T3 construct: made in house
T3 sequence (Q99828 1-191): T1 sequence (Q99828 1-191)

T4: CIB1 and αIIb interaction (GST-CIB1 : F-αIIb peptide) (Homo sapiens, UniProt Q99828)
T4 construct: made in house; host or cells: BL-21 plus RIL cells (E. coli)
T4 sequence (Q99828 1-191): T1 sequence (Q99828 1-191)

T5: F-scrambled αIIb-peptide (FITC-labeled scrambled control peptide)
T5 construct: scrambled order of the αIIb peptide's residues; also called labeled scrambled-peptide; scrambled peptide; source: synthetic peptide (custom synthesized, Peptide 2.0, purity 95.37%)
T5 peptide: Ac-RKLFVKVMFWRLNGAK-{FITC″}

T6: CIB1-(His)6 protein (UniProt Q99828 9-191)
T6 construct: source: purified using a Ni-NTA resin column
T6 sequence: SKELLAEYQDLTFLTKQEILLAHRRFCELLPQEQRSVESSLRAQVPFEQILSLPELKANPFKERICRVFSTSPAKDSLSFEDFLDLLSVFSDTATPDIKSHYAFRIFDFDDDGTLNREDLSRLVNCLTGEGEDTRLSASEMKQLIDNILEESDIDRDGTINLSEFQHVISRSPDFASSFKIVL

B1: GST-tagged recombinant CIB1 (calcium- and integrin-binding protein 1) (natural protein)
chain: T6 sequence
notes: Printed molecular weight of GST-CIB1 is 48 kDa against 26 kDa for GST alone, which would fit whole CIB1 (surmised); Vector family pGEX-4T is named for the empty vector; also called GST-CIB1; CIB1-GST
B2: unlabeled αIIb peptide (peptide)
peptide: Ac-LVLAMWKVGFFKRNRK
notes: integrin αIIb, stretch at the start of the cytoplasmic domain; last printed residue of the peptide; also called unlabeled peptide; source: synthetic peptide (custom synthesized, Peptide 2.0, purity >95.00%)
B3: FITC-labeled αIIb peptide from the cytoplasmic domain of integrin αIIb (peptide)
peptide: Ac-LVLAMWKVGFFKRNRK-{FITC′}
notes: integrin αIIb, stretch at the start of the cytoplasmic domain; last printed residue of the peptide; The C-terminal K probably carries the FITC (surmised); also called F-αIIb; F-αIIb peptide; source: synthetic peptide (custom synthesized, Peptide 2.0, purity 95.83%)

Experiments:
[1] = molecular target: T1, CIB1-(His)6 : F-αIIb peptide; assay: MST competitive binding study
Description: We sought to resolve this discrepancy by performing a competition binding study similar to the conditions of the FP HTS assay by utilizing the F-αIIb probe.
Figure 4 MST competitive binding assay. We selected 200 nM F-αIIb and a CIB1 concentration of 4 μM and tested both compounds. […] Panel (B) highlights the concentration range in which we observe different activities between the two compounds.
The binding affinity of the compounds to the CIB1-(His)6 protein in the presence of αIIb peptide was evaluated using FITC-labeled αIIb as well. Following manufacturer’s recommendation,[66] we first determined a minimum concentration of F-αIIb by performing a titration of the fluorophore (1 μM, 1:2, 8-points; final concentration range of 7.8 nM to 1 μM) in a 10 μL assay volume. Solutions were placed in standard capillaries and evaluated for the fluorescent signal using the Monolith NT.115 instrument. […] CIB1-(His)6 protein was titrated in a 2-fold dilution series (16-points, final concentration range of 15 nM to 500 μM), at a final volume of 12.5 μL. An equal volume of [2×] […] Solutions were placed in standard capillaries, incubated for approximately 1 h, and evaluated for a fluorescent signal with 50% LED excitation power, 20, 40, or 60% MST power (low, medium, high, respectively), MST on-time of 30 s, and off-time of 5 s.
Compounds were titrated in a 2-fold dilution series (16 points, final concentration range of 6.1 nM to 200 μM) and mixed with an equal volume CIB1-(His)6 protein and F-αIIb peptide (final concentrations of 4 μM and 200 nM, respectively). Solutions were incubated for 1 h at RT, then placed in standard capillaries, and evaluated for fluorescent signal (in triplicate) at the following parameters: 50% LED excitation power, 40% MST power, MST on-time of 30 s, and off-time of 5 s using Monolith NT.115 instrument. Dissociation constant (Kd) values were calculated by fitting the thermophoresis signal at 20 s of the thermograph using the MO Affinity Analysis software (Nanotemper Technologies, Munich, Germany) and confirmed using Graphpad Prism 7.

[2] = molecular target: T2, CIB1 and αIIb interaction (CIB1-GST : F-αIIb peptide); assay: FP assay, 1536-well qHTS format (primary and confirmatory screen); type: binding; conditions: over the concentration range tested
[3] = tested on: washed human platelets; assay: Human platelet aggregation assay (thrombin-induced); type: cell-based; conditions: for inhibition at 10 µM: Homo sapiens, Platelet, single concentration of 10 μM (n = 3), thrombin; for Thrombin Assay 10 µM (%): platelet aggregation inhibition at 10 µM
Source text: A classical challenge in target-based drug discovery is moving from biochemical to cellular assay and the essential step of determining if the compounds of interest can perform in a cellular context. After characterization of the compounds in a series of biochemical assay formats, our next step was to assess their activity in a cellular environment. Our previous studies have shown that the interaction of the cytoplasmic domain of integrin αIIbβ3, a key regulator of platelet aggregation, with CIB1, is involved in downstream signaling in platelet activation and aggregation. We sought to determine whether our candidate compounds were inhibiting this interaction by evaluating them for platelet function in a human platelet aggregation assay. We prepared platelet-rich plasma (PRP) and washed the platelets as previously described[44] and then performed a platelet aggregation assay using the washed platelet suspensions (2 × 10^8/platelets/mL) followed by the recording of aggregation traces (see Materials and Methods Section). To induce platelet aggregation, 0.03 U/mL of thrombin, a physiological agonist of platelet activation, was used.
Figure 6 Effect of compounds on human platelet activation. Representative platelet aggregation tracings of washed human platelet suspensions pretreated for 30 min at 37 °C with vehicle (DMSO) or compounds at indicated concentrations followed by activation with thrombin (0.03–0.1 U/mL). Panel (A): NCGC00071855. Panel (B–D): NCGC00351170. Panel (E): CD62P exposure was in the presence of NCGC00351170. Data represents mean ± SEM, n = 4 individual experiments; ns = non significant *P < 0.05, ***P < 0.001, ****P < 0.0001.
Whole blood was drawn by venipuncture from healthy adult volunteers (of both gender and race) with informed consent. Approval was obtained from the institutional review boards of Thomas Jefferson University, according to the Declaration of Helsinki. Blood was collected in acidified citrate dextrose as an anticoagulant. Platelet-rich plasma (PRP) and washed platelets were prepared, as previously described.[44] Platelet aggregation was performed using washed platelet suspensions containing 2 × 10^8 platelets/mL using a Chrono-Log Lumi-Aggregometer (Chrono-Log), as described previously.[11] Aggregation traces were recorded by using Aggrolink software (Chrono-Log). Thrombin-induced P-selectin (CD62P) exposure was performed using Accuri C6 flowcytometer (BD Bioscience) as described previously.[11]
Figure S9: Effect of compounds on human platelet activation. Representative platelet aggregation
tracings of washed human platelet suspensions treated with vehicle (DMSO) or indicated
compounds at 10 μM for 30 minutes at 37 °C followed by activation with thrombin (0.03U/mL).

[4] = molecular target: T3, CIB1-(His)6; assay: Microscale thermophoresis (MST) protein and small-molecule binding
Description: Determining a direct measurement of a molecule’s binding interaction with its target is a vital parameter for characterizing a chemical probe. We employed microscale thermophoresis (MST) for this purpose, leveraging its sensitivity and capacity to deliver quantitative data on the binding interaction.[35] […] We began by testing increasing amounts of the compound(s) and incubating them with the fluorescently labeled CIB1-(His)6, followed by the detection of the MST traces on the NT automated instrument (for more details see Materials and Methods Section). […] We were able to rule out compound interference with the histidine tag on CIB1 and/or the fluorophore used for the MST assay by testing the compounds with a fluorescently labeled hexa-histidine peptide (Figure S8B).
The binding affinity of the compounds to the CIB1-(His)6 protein was evaluated using microscale thermophoresis (MST). The recombinant protein was labeled with a fluorophore using Monolith His-tag labeling RED-tris-NTA second Generation kit (Nanotemper Technologies, Munich, Germany) following the manufacturer’s protocol. Compounds were titrated in a 2-fold dilution series (16 points, final concentration range of 6.1 nM to 200 μM) and incubated with the same volume of 50 nM (final concentration; 25 nM RED-tris-NTA) labeled recombinant protein for 30 min at RT (20 μL final assay volume). […] The dissociation constant (Kd) values were calculated by fitting the thermophoresis signal at 20 s of the thermograph using the MO Affinity Analysis software (Nanotemper Technologies, Munich, Germany) and confirmed using GraphPad Prism.

[5] = In vitro ADME: solubility; type: physicochemical; conditions: read-out: Solubility
[6] = In vitro ADME: PAMPA permeability
[7] = In vitro ADME: RLM stability; conditions: rat liver microsomes; read-out: Rat Liver Microsome Stability (t1/2)
[8] = molecular target: T4, CIB1 and αIIb interaction (GST-CIB1 : F-αIIb peptide); assay: FP assay, 384-well format (screen); type: binding
[9] = molecular target: T4, CIB1 and αIIb interaction (GST-CIB1 : F-αIIb peptide); assay: FP assay, 96-well format (assay development); type: binding; conditions: GST-CIB1 1 μM, F-αIIb peptide 100 nM, pre-incubated 1 h, read-out: half maximal inhibitory concentration (IC50)
[10] = molecular target: T5, F-scrambled αIIb-peptide (FITC-labeled …); conditions: both partners purified
[11] = molecular target: B3; conditions: both partners purified
[12] = molecular target: B1; conditions: both partners purified
[13] = molecular target: B1; assay: fluorescence polarisation; competition, 384-well plate; GST-CIB1 1 or 2 μM, F-αIIb 50 nM, unlabeled αIIb peptide 16-point 1:2 dilution (3.05 nM to 100 μM), points >25 μM excluded; room temperature, 1 h; conditions: both partners purified
[14] = molecular target: T6, CIB1-(His)6 protein; assay: MST; 200 nM F-αIIb with CIB1-(His)6 titrated 15 nM to 500 μM (16 points); about 1 h; medium (40%) MST power, Monolith NT.115; conditions: both partners purified

EC50 ([1]; 200 nM F-αIIb, 4 μM CIB1-(His)6, n = 3/concentration): 29 µM
difference between the two compounds (EC50) ([1]; NCGC00351154 vs NCGC00351170): 13.8 fold
activity in the qHTS assay [2]: inactive
Kd ([4]; MST, fluorescently labeled CIB1-(His)6 50 nM, read-out: equilibrium dissociation constant (Kd)): 6.7 µM
difference in binding affinity ([4]; NCGC00351154 vs NCGC00351170 Kd): 2.3 fold
solubility [5]: 1 µg/mL (≈ 2.24 µM)
Papp [6]: < 3 ×10⁻⁶ cm/s
Molecule: O=C(c1ccc(-c2ccccc2)cc1)c1no[n+]([O-])c1C(=O)c1ccc(-c2ccccc2)cc1 [NCGC00351154-01]
inhibition at 10 µM [3]: 16%
Thrombin Assay 10 µM (%) [3]: 16%

half-life [7]: 2.34 min
IC50 ([8]; 384-well FP assay, Table 1, read-out: FP assay IC50): 6.68 µM
solubility [5]: < 1 µg/mL
Papp [6]: < 12.4 ×10⁻⁶ cm/s
Molecule: O=C(c1ccccc1C(F)(F)F)c1no[n+]([O-])c1C(=O)c1ccccc1C(F)(F)F [NCGC00351167-01]
inhibition at 10 µM [3]: 84%
Thrombin Assay 10 µM (%) [3]: 84%

IC50 [9]: 11.2 µM
IC50 ([8]; 384-well, F-αIIb 50 nM, GST-CIB1 1 or 2 μM, RT 1 h, read-out: IC50): ~2.7 µM and ~3 µM
Molecule: Ac-LVLAMWKVGFFKRNRK [unlabeled αIIb peptide, reference compound]

Molecule: B1
EC50 [10]: 1.6 µM
EC50 [11]: ~0.2 µM

Molecule: B2
IC50 [12]: ~12 µM and 8.6 µM
IC50 [13]: ~2.7 µM

Molecule: B3
Kd [14]: 2.6 µM
